How the values were obtained:
[1] = target: T1, IMP-1 (Serratia marcescens, UniProt P52699); assay: Enzyme activity test (FC5 fluorescent substrate), IMP-1; type: biochemical; conditions: enzyme 20 pM, substrate FC5 15 μM
T1 construct: purchased GenScript Biotech Co., Ltd
Experimental: (§1) Compound stock solution: the compound was prepared as a 50 mM DMSO stock solution. […] After aliquoting, the compound stock solutions were stored at −20° C.
(§2) Preparation and storage of antibiotic substrate stock solution: antibiotic fluorescent substrate FC5 was synthesized internally and prepared as a 2 mM stock solution, which was stored at −20° C. after aliquoting.
(§3) Storage of β-lactamases: each […] was synthesized by GenScript Biotech Co., Ltd., and stored at −80° C. after aliquoting to avoid repeated freezing and thawing.
(§4) Preparation of enzyme activity reaction buffer: SBL buffer: PBS pH 7.4, 0.01% (v/v) Triton X-100; MBL buffer: 50 Mm HEPES in PBS pH 7.2, 1 μM ZnSO4, 1 μg/mL BSA, 0.010% v/v Triton X-100
(§5) a) The compound to be tested and buffer were taken out and warmed to room temperature.
(§6) b) Each compound was diluted with DMSO and buffer to the initial experimental concentration (Table 2), and then the compound was diluted 3-fold for a total of 10 concentrations.
(§7) c) Diluted compounds were added to wells 1 to 20 of a 384-well black plate at 2 replicate wells per concentration, 5 μL per well. 5 µL of DMSO was added to wells 21 to 24.
(§8) d) Each enzyme was diluted to the experimental concentration (Table 2) in SBL and MBL buffers, and finally 35 μL/well was added, with a total of 22 wells. 35 μL buffer was added to wells 23 to 24. Wells 21 to well 22 served as the maximum test values (Max), while wells 23 to 24 were designated as the minimum test values (Min).
(§9) e) The 384-well plate was centrifuged quickly and incubated for 10 minutes at room temperature.
(§10) f) The antibiotic substrate FC5 was diluted in buffer to the experimental concentration of each enzyme (Table 2).
(§11) g) The incubated 384-well plate was taken out and FC-5 was added to wells […]. The 384-well plate was centrifuged rapidly and promptly transferred to a microplate reader for reading.
(§12) h) The fluorescence intensity was measured at 355 nm excitation light/460 nm emission light in the microplate reader, and the fluorescence intensity was measured every three minutes for a total of 10 measurements.
(§13) Initial velocity of enzyme reaction V: Subtract the background reading (Min wells) without enzyme from each fluorescence intensity reading, and then perform on a linear regression analysis on each compound concentration group. The slope is the initial velocity of enzyme reaction (V) at each compound concentration.
(§14) Dose-effect curve and IC50 calculation of compounds: The initial velocity of enzyme reaction under the effect of each concentration of compounds was subjected to nonlinear regression fitting. The IC50 (half-maximal inhibitory concentration) of each compound was calculated using the formula […] (Vi: the initial velocity of enzyme reaction at each compound concentration; V0: initial velocity of enzyme reaction without the compound (Max wells). The software used was Graphpad prism 8.

[2] = target: T2, VIM-2 (Escherichia coli, UniProt Q5U7L7); assay: Enzyme activity test (FC5 fluorescent substrate), VIM-2; type: biochemical; conditions: enzyme 25 pM, substrate FC5 20 μM
T2 construct: purchased GenScript Biotech Co., Ltd
Experimental: as §1, §2, §3, §4, §5, §6, §7, §8, §9, §10, §11, §12, §13, §14

[3] = test system: Klebsiella pneumoniae ARLG 1196; assay: MIC test of compounds in combination with antibiotics, Klebsiella pneumoniae ARLG 1196; conditions: Klebsiella pneumoniae ARLG-1196 CTM-1 group, SHV, NDM, TEM
Experimental: (§15) Strain preparation: the strains to be tested were streaked from glycerol tube at −80° C. onto Mueller Hinton II Agar plates. The plates were then placed in a 37° C. incubator and cultured for 18-24 hours.
(§16) Media preparation: CAMHB (Mueller Hinton II Broth): 22 g of powder was dissolved in 1 L of purified water and sterilized at 121° C. for 10 min for use. Saline: 8.5 g NaCl was dissolved in 1 L of pure water and sterilized at 121° C. for 30 min for use.
(§17) Preparation of compound and antibiotic stock solutions: the compound and antibiotic were dissolved in DMSO or water to 12.8 mg/mL.
(§18) 2-Fold gradient dilution of antibiotics: 300 μL of CAMHVIB medium was added to columns 2-12 of a 96-deep well plate. In column 1, 24 μL of antibiotic stock solution and 576 µL of CAMHB medium were added and mixed well, with a concentration of 512 μg/mL. 300 µL of antibiotic solution was transferred from the column 1 to the second column and mixed well. The process was repeated until column 11, and the column 12 was a blank control.
(§19) Dilution of combined compounds: the compound was diluted 400-fold to 32 μg/ml with CAMHB medium.
(§20) Working solution aliquoting: 25 μL of antibiotics was aliquoted into the 96-U bottom plate with a pipette, and 25 μL of combined compound was added to each well. If antibiotics were used alone, 25 μL of CAMHB medium was added.
(§21) Inoculum solution preparation: 5-6 single colonies were selected from the plate and suspended in normal saline. The bacterial suspension was adjusted to 0.2 (i.e., 0.5 McFarland turbidity, with a bacterial concentration was about 1 to 2×10^8 CFU/mL) with a turbidity meter. The bacterial suspension was diluted 100-fold with CAMHB medium for later use.
(§22) Inoculation: 50 μL of inoculum solution was transferred to the above 50 μL compound plate with a pipette.
(§23) Culture: The 96-U bottom plate was placed in an incubator at 37° C. for 18 to 20 h.
(§24) After the incubation, bacterial growth was visually observed, and the test plate was photographed and recorded.

[4] = test system: carbapenem-resistant Acinetobacter baumannii strains; assay: MIC test of compounds in combination with antibiotics, resistant Acinetobacter baumannii strains; conditions: all resistant strains of Acinetobacter baumannii
[5] = target: T3, OXA-48 (Klebsiella pneumoniae, UniProt Q6XEC0); assay: Enzyme activity test (FC5 fluorescent substrate), OXA-48; type: biochemical; conditions: enzyme 650 pM, substrate FC5 125 μM
T3 construct: purchased GenScript Biotech Co., Ltd
T3 sequence (Q6XEC0 23-265 limits assumed): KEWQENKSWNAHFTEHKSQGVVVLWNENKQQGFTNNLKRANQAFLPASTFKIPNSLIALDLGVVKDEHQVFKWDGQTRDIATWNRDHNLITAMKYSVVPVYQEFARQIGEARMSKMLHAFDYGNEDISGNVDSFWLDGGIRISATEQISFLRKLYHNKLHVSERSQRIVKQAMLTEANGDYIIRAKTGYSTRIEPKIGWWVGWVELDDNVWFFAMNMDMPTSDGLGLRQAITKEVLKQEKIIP
Experimental: as §1, §2, §3, §4, §5, §6, §7, §8, §9, §10, §11, §12, §13, §14

[6] = target: T4, OXA-23 (Acinetobacter baumannii, UniProt Q9L4P2); assay: Enzyme activity test (FC5 fluorescent substrate), OXA-23; type: biochemical; conditions: enzyme 650 pM, substrate FC5 50 μM
T4 construct: purchased GenScript Biotech Co., Ltd
T4 sequence (Q9L4P2 18-273): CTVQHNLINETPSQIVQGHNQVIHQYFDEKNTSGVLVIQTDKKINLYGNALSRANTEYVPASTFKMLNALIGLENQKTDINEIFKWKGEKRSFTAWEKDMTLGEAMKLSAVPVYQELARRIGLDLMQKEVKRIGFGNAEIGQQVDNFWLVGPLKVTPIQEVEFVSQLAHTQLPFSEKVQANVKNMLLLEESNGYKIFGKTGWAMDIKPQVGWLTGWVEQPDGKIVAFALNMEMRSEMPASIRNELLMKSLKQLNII
Experimental: as §1, §2, §3, §4, §5, §6, §7, §8, §9, §10, §11, §12, §13, §14

[7] = test system: Klebsiella pneumoniae ATCC BAA-1705; assay: MIC test of compounds in combination with antibiotics, Klebsiella pneumoniae ATCC BAA-1705; conditions: Klebsiella pneumoniae ATCC BAA-1705 KPC-2
Experimental: as §15, §16, §17, §18, §19, §20, §21, §22, §23, §24

[8] = test system: Acinetobacter baumannii ARLG-1809 OXA-23; assay: MIC test of compounds in combination with antibiotics, Acinetobacter baumannii ARLG-1809; conditions: Acinetobacter baumannii ARLG-1809 OXA-23
Experimental: as §18, §19, §20, §21, §22, §23

[9] = test system: Acinetobacter baumannii WX-AB013; assay: MIC test of compounds in combination with antibiotics, Acinetobacter baumannii WX-AB013; conditions: Acinetobacter baumannii WX-AB013
Experimental: as §18, §19, §20, §21, §22, §23

[10] = target: T5, KPC-2 (Klebsiella pneumoniae, UniProt Q9F663); assay: Enzyme activity test (FC5 fluorescent substrate), KPC-2; type: biochemical; conditions: enzyme 45 pM, substrate FC5 25 μM
T5 construct: purchased GenScript Biotech Co., Ltd
T5 sequence (Q9F663 25-293 limits assumed): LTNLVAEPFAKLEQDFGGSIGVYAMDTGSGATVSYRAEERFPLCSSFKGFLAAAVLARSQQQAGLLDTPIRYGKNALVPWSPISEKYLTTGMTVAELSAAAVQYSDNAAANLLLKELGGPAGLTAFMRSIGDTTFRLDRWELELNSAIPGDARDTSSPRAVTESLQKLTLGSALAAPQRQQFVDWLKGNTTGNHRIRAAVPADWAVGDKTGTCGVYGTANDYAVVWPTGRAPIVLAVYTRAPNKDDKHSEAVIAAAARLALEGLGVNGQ
Experimental: as §1, §2, §3, §4, §5, §6, §7, §8, §9, §10, §11, §12, §13, §14

[11] = target: T6, CTX-M-15 (Escherichia coli, UniProt Q9EXV5); assay: Enzyme activity test (FC5 fluorescent substrate), CTX-M-15; type: biochemical; conditions: enzyme 45 pM, substrate FC5 50 μM
T6 construct: purchased GenScript Biotech Co., Ltd
T6 sequence (Q9EXV5 entry or part of it): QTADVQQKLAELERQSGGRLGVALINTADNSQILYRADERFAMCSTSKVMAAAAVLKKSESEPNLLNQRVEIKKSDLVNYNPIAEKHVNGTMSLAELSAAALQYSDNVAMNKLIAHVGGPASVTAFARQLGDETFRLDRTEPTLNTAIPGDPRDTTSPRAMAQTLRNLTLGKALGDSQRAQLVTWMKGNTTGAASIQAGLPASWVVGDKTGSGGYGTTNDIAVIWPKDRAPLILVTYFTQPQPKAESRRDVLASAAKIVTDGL
Experimental: as §1, §2, §3, §4, §5, §6, §7, §8, §9, §10, §11, §12, §13, §14

[12] = test system: Acinetobacter baumannii ARLG-1853 OXA-23; assay: MIC test of compounds in combination with antibiotics, Acinetobacter baumannii ARLG-1853; conditions: Acinetobacter baumannii ARLG-1853 OXA-23
Experimental: as §18, §19, §20, §21, §22, §23

[13] = target: T7, VIM-1 (Pseudomonas aeruginosa, UniProt A0A0F7KYQ8); assay: Enzyme activity test (FC5 fluorescent substrate), VIM-1; type: biochemical; conditions: enzyme 70 pM, substrate FC5 10 μM
T7 construct: purchased GenScript Biotech Co., Ltd
Experimental: as §1, §2, §3, §4, §5, §6, §7, §8, §9, §10, §11, §12, §13, §14

[14] = test system: Acinetobacter baumannii ARLG-1852 OXA-23; assay: MIC test of compounds in combination with antibiotics, Acinetobacter baumannii ARLG-1852; conditions: Acinetobacter baumannii ARLG-1852 OXA-23
Experimental: as §18, §19, §20, §21, §22, §23

[15] = test system: Escherichia coli ARLG 2829; assay: MIC test of compounds in combination with antibiotics, Escherichia coli ARLG 2829; conditions: Escherichia coli ARLG-2829 NDM-5, OXA-1
Experimental: as §15, §16, §17, §18, §19, §20, §21, §22, §23, §24

T1 sequence (P52699 19-246 limits assumed): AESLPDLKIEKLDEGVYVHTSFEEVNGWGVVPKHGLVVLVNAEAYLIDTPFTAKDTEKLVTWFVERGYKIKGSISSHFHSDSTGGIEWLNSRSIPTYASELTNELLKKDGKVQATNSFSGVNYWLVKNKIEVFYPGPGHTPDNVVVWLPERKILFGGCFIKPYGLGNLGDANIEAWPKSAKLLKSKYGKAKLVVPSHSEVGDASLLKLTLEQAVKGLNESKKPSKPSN

Q: `NCCNC1CCC(CC(=O)N[C@H]2Cc3cccc(C(=O)O)c3OB2O)CC1` (stereo partly shown) [VNRX-5133, reference compound] was tested. Which IC50 [1] did it give?
A: Its IC50 is greater than 10000 nM.

Q: And the IC50 [2]?
A: The IC50 was 4.4 nM.

Q: And the MIC ([3]; Cefepime + compound (8 μg/mL))?
A: Its MIC is 1 µg/mL.

Q: And the MIC ([3]; Meropenem + compound (8 μg/mL))?
A: The MIC was 1 µg/mL.

Q: And the MIC of the combination with cefepime/meropenem [4]?
A: The MIC of the combination with cefepime/meropenem was greater than 32 µg/mL.

Q: What about the IC50 [5] of the same compound?
A: The IC50 was 343 nM.

Q: And the IC50 [6]?
A: Its IC50 is greater than 10000 nM.

Q: What about the MIC ([7]; Cefepime + compound (8 μg/mL)) of the same compound?
A: The MIC was 0.25 µg/mL.

Q: What about the MIC ([7]; Meropenem + compound (8 μg/mL)) of the same compound?
A: Its MIC is 0.125 µg/mL.

Q: And the MIC ([8]; Cefepime + compound (8 μg/mL))?
A: The MIC was 32 µg/mL.

Q: What about the MIC ([8]; Meropenem + compound (8 μg/mL)) of the same compound?
A: The MIC was 128 µg/mL.

Q: What about the MIC ([9]; Cefepime + compound (8 μg/mL)) of the same compound?
A: Its MIC is 64 µg/mL.

Q: And the MIC ([9]; Meropenem + compound (8 μg/mL))?
A: The MIC was 128 µg/mL.

Q: And the IC50 [10]?
A: Its IC50 is 64.2 nM.

Q: What about the IC50 [11] of the same compound?
A: The IC50 was 12.4 nM.

Q: What about the MIC ([12]; Cefepime + compound (8 μg/mL)) of the same compound?
A: Its MIC is 32 µg/mL.

Q: And the MIC ([12]; Meropenem + compound (8 μg/mL))?
A: Its MIC is 128 µg/mL.

Q: What about the IC50 [13] of the same compound?
A: The IC50 was 33 nM.

Q: And the MIC ([14]; Cefepime + compound (8 μg/mL))?
A: The MIC was 32 µg/mL.

Q: And the MIC ([14]; Meropenem + compound (8 μg/mL))?
A: The MIC was 128 µg/mL.

Q: And the MIC ([15]; Cefepime + compound (8 μg/mL))?
A: The MIC was 1 µg/mL.

Q: What about the MIC ([15]; Meropenem + compound (8 μg/mL)) of the same compound?
A: The MIC was 1 µg/mL.

From US20250223303A1, “TRICYCLIC BORONIC ACID DERIVATIVE, AND PREPARATION METHOD THEREFOR AND APPLICATION THEREOF” (priority 2021, published 2025)
